Measurements reported in article PMC12029982, “The Mechanism of a Novel Mitochondrial-Targeted Icaritin Derivative in Regulating Apoptosis of BEL-7402 Cells Based on the SIRT3 and CypD-Mediated ROS/p38 MAPK Signaling Pathway” (Molecules, 2025).

What was measured:
HEK293 = assay: MTT assay, cytotoxicity to normal cell line; format: cell-based, human; details: Homo sapiens, HEK293; MTT, 48 h drug exposure, mean ± SD; normal cell line
Method: (§1) Human cancer cell lines BEL-7402, A549, MCF-7, PC-3M, and normal renal cell line HEK293 were bought from the BeNa Culture Collection (Beijing, China). BEL7402, A549, and PC-3M were cultured in RPMI 1640 medium (Gibco, Carlsbad, CA, USA). MCF-7 and HEK293 were cultured in the DMEM medium (Gibco, CA, USA). The medium was supplemented with 10% fetal bovine serum (FBS) (CLARK, San Diego, CA, USA), 100 U/mL penicillin, and 0.1 mg/mL streptomycin (Beyotime, Nanjing, China). The cells were incubated in 5% CO2 at 37 °C.
(§2) The MTT assay was employed to assess the inhibitory effect of each compound on cell growth. A549, PC-3M, MCF-7, BEL-7402, and HEK293 cells in the logarithmic growth phase were seeded in 96-well culture plates at an inoculum density of 5 × 10^4 cells/mL. After overnight incubation at 37 °C in a 5% CO2 atmosphere, the cells fully adhered to the surface. Different concentrations of sample solutions (0, 3.125, 6.25, 12.5, 25, 50, 100 μmol/L) were added (100 μL) to treat the cells. After 48 h of drug treatment, 10 μL of a 5 mg/mL MTT solution was added to each well and incubated for 4 h at 37 °C. The supernatant was then discarded, and 150 μL of DMSO was added to dissolve the formazan. The mixture was shaken at room temperature for 15 min, and the absorbance (D) value was measured at 490 nm using a Microplate Reader (HBS-ScanY, Nanjing, China). The drug IC50 values were calculated using GraphPad Prism (v10.0). Each cell viability experiment was performed in triplicate.

A549 = assay: MTT assay, antiproliferative activity; format: cell-based; details: Homo sapiens, 48 h drug exposure, mean ± SD
Method: as §1, §2

PC-3M = assay: MTT assay, antiproliferative activity; format: cell-based; details: Homo sapiens, 48 h drug exposure, mean ± SD
Method: as §1, §2

MCF-7 = assay: MTT assay, antiproliferative activity; format: cell-based; details: Homo sapiens, MCF7, 48 h drug exposure, mean ± SD
Method: as §1, §2

BEL-7402 = assay: MTT assay, antiproliferative activity; format: cell-based; details: Homo sapiens, 48 h drug exposure, mean ± SD
Method: as §1, §2

| SMILES | IC50 (A549) [µM] | IC50 (PC-3M) [µM] | IC50 (MCF-7) [µM] | IC50 (BEL-7402) [µM] | IC50 (HEK293) [µM] |
| --- | --- | --- | --- | --- | --- |
| COc1ccc(-c2oc3c(CC=C(C)C)c(OC(=O)CCCC[P+](c4ccccc4)(c4ccccc4)c4ccccc4)cc(O)c3c(=O)c2O)cc1 [Mito-ICT-1] | 21.1 ± 2.67 | 33.6 ± 2.53 | 10.7 ± 0.35 | 2.85 ± 0.7 | 47 ± 2.91 |
| COc1ccc(-c2oc3c(CC=C(C)C)c(O)cc(O)c3c(=O)c2O)cc1 [ICT, Icaritin] | 43.1 ± 1.93 | 63.6 ± 2.67 | 25.7 ± 1.89 | 21.8 ± 2.42 | 43.2 ± 3.05 |
| COc1ccc(-c2oc3c(CC=C(C)C)c(OC(=O)CCCCBr)cc(O)c3c(=O)c2O)cc1 [Compound 1] | 35.8 ± 3.57 | 44.5 ± 2.15 | 25.8 ± 1.07 | 47.8 ± 2.65 | 46.8 ± 1.82 |
| COc1ccc(-c2oc3c(CC=C(C)C)c(OC(=O)CCCCCCBr)cc(O)c3c(=O)c2O)cc1 [Compound 2] | > 100 | 76.1 ± 4.44 | 42.1 ± 5.47 | 40.6 ± 5.5 | > 100 |
| COc1ccc(-c2oc3c(CC=C(C)C)c(OC(=O)CCCCCCCCBr)cc(O)c3c(=O)c2O)cc1 [Compound 3] | > 100 | > 100 | > 100 | > 100 | > 100 |
| CCCCCCC(=O)Oc1cc(O)c2c(=O)c(O)c(-c3ccc(OC)cc3)oc2c1CC=C(C)C [Compound 6] | > 100 | > 100 | 45.6 ± 3.02 | 40.6 ± 5.17 | > 100 |
| COc1ccc(-c2oc3c(CC=C(C)C)c(OC(=O)CCCCCCCCCCBr)cc(O)c3c(=O)c2O)cc1 [Compound 4] | > 100 | 76 ± 4.69 | > 100 | > 100 | > 100 |
| O=c1[nH]cc(F)c(=O)[nH]1 [Compound 5-FU, 5-fluorouracil, reference compound] | 86.2 ± 7.94 | 58.7 ± 2.64 | 13.5 ± 2.78 | 39 ± 1.32 | > 100 |

The next lines start with results.

| IC50 (A549) [µM] | IC50 (PC-3M) [µM] | IC50 (MCF-7) [µM] | IC50 (BEL-7402) [µM] | SMILES | IC50 (HEK293) [µM] |
| --- | --- | --- | --- | --- | --- |
| 13.7 ± 0.92 | 20.6 ± 2.06 | 22.5 ± 1.78 | 3.85 ± 0.69 | COc1ccc(-c2oc3c(CC=C(C)C)c(OC(=O)CCCCCCCC[P+](c4ccccc4)(c4ccccc4)c4ccccc4)cc(O)c3c(=O)c2O)cc1 [Mito-ICT-3] | 55 ± 3.92 |
| > 100 | > 100 | > 100 | > 100 | CCCCCCCCCCC(=O)Oc1cc(O)c2c(=O)c(O)c(-c3ccc(OC)cc3)oc2c1CC=C(C)C [Compound 8] | > 100 |
| 97.8 ± 6.4 | 60.2 ± 3.88 | 48.9 ± 1.42 | 39.9 ± 2.06 | CCCCC(=O)Oc1cc(O)c2c(=O)c(O)c(-c3ccc(OC)cc3)oc2c1CC=C(C)C [Compound 5] | 77.2 ± 5.13 |
| 10.7 ± 1.09 | 27.8 ± 1.74 | 23.7 ± 2.24 | 3.43 ± 0.91 | COc1ccc(-c2oc3c(CC=C(C)C)c(OC(=O)CCCCCC[P+](c4ccccc4)(c4ccccc4)c4ccccc4)cc(O)c3c(=O)c2O)cc1 [Mito-ICT-2] | 53.7 ± 5.15 |
| 6.88 ± 0.62 | 0.24 ± 0.11 | 2.44 ± 0.81 | 3.23 ± 0.64 | COc1cccc2c1C(=O)c1c(O)c3c(c(O)c1C2=O)C[C@@](O)(C(=O)CO)C[C@@H]3O[C@H]1C[C@H](N)[C@H](O)[C@H](C)O1 [DOX, doxorubicin, reference compound] | > 100 |
| > 100 | > 100 | > 100 | 74.6 ± 4.83 | CCCCCCCCC(=O)Oc1cc(O)c2c(=O)c(O)c(-c3ccc(OC)cc3)oc2c1CC=C(C)C [Compound 7] | > 100 |
